According to patent US20230066268A1, “INDAZOLE DERIVATIVES AND METHODS OF USE THEREOF FOR THE TREATMENT OF HERPES VIRUSES” (Merck Sharp & Dohme LLC, priority 2019, published 2023):
Read-outs that look alike come from different tables or passages of the source.

Columns and labels:
[1] = tested on: HCMV Strain AD169 in MRC-5 cells; assay: CMV cell assay; type: cell-based
Experimental: MRCS and Vero cells were obtained from ATCC and were maintained at 37° C./5% CO2/90% relative humidity in Minimal Essential Medium with 10% fetal bovine serum, […], 100 units/mL penicillin and 100 ug/mL streptomycin. Assay plates were prepared by dispensing compounds dissolved in DMSO into wells of 384 well collagen-coated plates using an ECHO acoustic dispenser. Each test compound was tested in a 10-point, serial 3-fold dilution. Controls included uninfected cells and infected cells treated only with DMSO. Assays were initiated by mixing selected cells, in suspension, with virus, and dispensing 50 μl/well infected cells to pre-plated compounds. Plates were incubated at 37° C./5% CO2/90% relative humidity for ˜72 hours to permit genomic replication, and infected cells were lysed by the addition of an equal volume of lysis buffer (10 mM Tris-HCl, pH8, 50 mM KCl, 2 mM MgCl2, 0.45% NP-40, 0.45% Tween-20, and 100 μg/mL proteinase K). An aliquot of the lysate was then transferred to a 384-well PCR plate and incubated at 56° C. for 1 hour, and then at 95° C. for 10 minutes. Levels of a viral gene were measured in 10 ul qPCR assays using TaqMan® Gene Expression Master Mix (Applied Biosystems) and an 7900HT Fast Real-Time PCR System with 384-Well Block Module. 7-point, serial 10-fold dilutions of a plasmid standard were run on each plate to generate a standard curve, and genome copies numbers were calculated by plotting experimental Ct onto linear regression of the standard curve. Compound effects on viral genome copy number were normalized to the window defined by the controls. Calculated % effects were fit using a 4-parameter algorithm, and EC50 was reported.
HCMV: Strain AD169 was assayed in MRC-5 cells and was used at 0.05-0.1 pfu/cell. The assays were performed in either growth media or in the same media with 50% fetal bovine serum. Primer-probe set was Thermo Fisher Assay ID=AIFATFK. HSV-1: Strain F was assayed in Vero or MRCS cells and was used at 0.0005-0.004 pfu/cell in growth medium. Primer-probe set was Thermo Fisher Assay ID=AIBJZIB. HSV-2: Strain G was assayed in Vero or MRCS cells and was used at 0.004-0.4 pfu/cell in growth medium. Primer-probe set was Thermo Fisher Assay ID=AICSXOJ.

[2] = biological target: T1, Human cytomegalovirus DNA polymerase (Human cytomegalovirus, UniProt P08546); assay: CMV polymerase assay (AlphaLISA); type: biochemical; conditions: polymerase assay of Example 27, HCMV polymerase 0.2 nM
T1 construct: made in house; host or cells: SF21 insect cells (baculovirus vector)
Experimental: (§1) CMV and VZV Polymerase Assays
(§2) Human cytomegalovirus and varicella zoster virus DNA polymerases were expressed via baculovirus vector in SF21 cells and purified. Heterodimeric nucleic acid substrate used in the herpesvirus polymerase reactions were generated by annealing a 59-mer template to a 17-mer digoxigenin-labeled primer. Polymerase (HCMV final concentration of 0.2 nM; VZV final concentration of 0.4 nM) was combined with an inhibitor compound or DMSO in assay buffer (10 mM HEPES, pH 7.5, 25 mM KCl, 25 mM NaCl, 5 mM MgCl2, 5% glycerol, 0.67 mg/mL bovine serum albumin, and 1 mM tris(2-carboxyethyl)phosphine)), and this mixture was pre-incubated for 30 minutes at room temperature in 384-well microtiter plates. The polymerization reaction was initiated by the addition of template/primer substrate (final concentration: 1.6 nM) and dNTPs (final concentration: 24 nM dCTP, 24 nMdGTP, 16 nM dATP, 16 nM dTTP, and 0.8 nM biotin-dUTP). After a 60 minute incubation period at 37° C., the reactions were terminated using quench buffer (25 mM HEPES pH 7.5, 100 mM NaCl, 0.25% Tween-20, 12 mM EDTA, and 1 mg/mL bovine serum albumin). Incorporation of biotinylated UTP was detected with 2.5-5 μg/mL anti-DIG AlphaLISA acceptor beads and 5-10 μg/mL streptavidin AlphaLISA donor beads (PerkinElmer). Compound effects were normalized to the window defined by the controls (DMSO only and pre-quenched wells) and were fit using a 4-parameter algorithm to report an IC50.

[3] = tested on: HSV-1, strain F in Vero cells; assay: HSV CPE assay, HSV-1; type: cell-based
Experimental: (§3) Vero cells were maintained at 37° C./5% CO2/90% relative humidity in Dulbecco's Modified Eagle's Medium with 10% fetal bovine serum, […], 100 units/mL penicillin and 100 ug/mL streptomycin. For this assay, Vero cells (maintained at 37° C./5% CO2/90% relative humidity in Dulbecco's Modified Eagle's Medium with 10% fetal bovine serum, […], 100 units/mL penicillin and 100 μg/mL streptomycin) were seeded in 96-well microtiter plates and incubated for about 15 hours. They were then infected with HSV-1, strain F, or with HSV-2, strain G, at a multiplicity of infection known to result in 85-95% loss of cell viability during the assays, in the same media with 2% fetal bovine serum. Test compounds were dissolved in DMSO, and 6 point serial 10-fold dilutions in DMSO were prepared. Test compounds were added to infected cells, and the plates were incubated at 37° C./5% CO2/90% relative humidity for 5 days. Each plate contains cell control wells (cells only), virus control wells (cells plus virus), drug colorimetric control wells (drug only), background control wells (media only) and experimental wells (drug plus cells plus virus). Cytoprotection was assessed by the addition of Celltiter®96 Reagent (Promega, Madison, Wis.), according to manufacturer's recommendations. % cytopathic effect (CPE) reduction was calculated and IC50 (concentration inhibition virus replication by 50%) was reported.

[4] = biological target: T2, varicella zoster virus DNA polymerase (Varicella-zoster virus, UniProt P09252); assay: VZV polymerase assay (AlphaLISA); type: biochemical; conditions: polymerase assay of Example 27, VZV polymerase 0.4 nM
T2 construct: made in house; host or cells: SF21 insect cells (baculovirus vector)
Experimental: as §1, §2

[5] = tested on: HSV-2, strain G in Vero cells; assay: HSV CPE assay, HSV-2; type: cell-based
Experimental: as §3

[6] = Human betaherpesvirus 5, AD169, MRC5, footnote b: assay described in Example 25, read-out: CMV Cell^b (EC50)
[7] = Human alphaherpesvirus 1, 120 h, unstarred values: CPE assay of Example 25, Vero cells, 5 days, read-out: HSV1 Cell^b (EC50)
[8] = Human alphaherpesvirus 2, 120 h, unstarred values: CPE assay of Example 25, Vero cells, 5 days, read-out: HSV2 Cell^b CPE(EC50)
[9] = Human betaherpesvirus 5, AD169, MRC5, read-out: CMV Cell^b (EC50), footnote b: assay described in Example 25
[10] = Human alphaherpesvirus 1, Vero, 120 h, read-out: HSV1 Cell^b (EC50), unstarred values: CPE assay of Example 25, Vero cells, 5 days
[11] = Human alphaherpesvirus 2, Vero, 120 h, read-out: HSV2 Cell^b CPE(EC50), unstarred values: CPE assay of Example 25, Vero cells, 5 days
[12] = read-out: HSV1 Cell^b (EC50), unstarred values: CPE assay of Example 25, Vero cells, 5 days

T1 sequence (P08546 whole entry): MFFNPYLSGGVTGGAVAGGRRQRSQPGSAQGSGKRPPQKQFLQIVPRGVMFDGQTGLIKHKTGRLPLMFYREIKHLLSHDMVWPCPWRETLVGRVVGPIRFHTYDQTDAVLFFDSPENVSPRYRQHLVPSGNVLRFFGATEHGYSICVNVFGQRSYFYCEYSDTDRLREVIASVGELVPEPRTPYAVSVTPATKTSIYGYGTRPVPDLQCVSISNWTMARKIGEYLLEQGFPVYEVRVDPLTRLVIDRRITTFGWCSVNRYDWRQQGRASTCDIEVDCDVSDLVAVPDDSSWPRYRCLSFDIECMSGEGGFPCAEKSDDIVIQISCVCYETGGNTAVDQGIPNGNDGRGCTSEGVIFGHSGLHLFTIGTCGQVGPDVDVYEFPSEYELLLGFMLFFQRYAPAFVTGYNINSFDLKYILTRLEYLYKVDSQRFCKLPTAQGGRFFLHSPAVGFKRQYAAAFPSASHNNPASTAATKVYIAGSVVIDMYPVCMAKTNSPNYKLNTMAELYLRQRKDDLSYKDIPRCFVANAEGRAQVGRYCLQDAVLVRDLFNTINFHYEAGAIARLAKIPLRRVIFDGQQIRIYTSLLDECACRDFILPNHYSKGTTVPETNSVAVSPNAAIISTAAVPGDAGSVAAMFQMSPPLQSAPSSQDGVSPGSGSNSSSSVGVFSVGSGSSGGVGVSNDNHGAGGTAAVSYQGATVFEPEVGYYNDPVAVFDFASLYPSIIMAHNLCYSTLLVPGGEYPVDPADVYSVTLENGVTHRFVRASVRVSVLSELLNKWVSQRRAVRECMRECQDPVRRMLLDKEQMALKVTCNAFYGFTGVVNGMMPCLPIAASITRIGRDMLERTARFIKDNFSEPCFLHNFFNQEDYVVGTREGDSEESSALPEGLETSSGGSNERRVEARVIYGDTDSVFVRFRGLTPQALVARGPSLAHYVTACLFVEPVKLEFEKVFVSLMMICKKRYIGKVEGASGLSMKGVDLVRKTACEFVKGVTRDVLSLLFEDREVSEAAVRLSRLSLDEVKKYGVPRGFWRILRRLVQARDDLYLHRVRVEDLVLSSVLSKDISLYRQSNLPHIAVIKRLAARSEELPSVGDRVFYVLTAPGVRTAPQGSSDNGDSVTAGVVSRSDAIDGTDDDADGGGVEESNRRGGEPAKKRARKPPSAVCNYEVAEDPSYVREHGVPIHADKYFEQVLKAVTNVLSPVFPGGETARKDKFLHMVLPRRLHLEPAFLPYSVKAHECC
T2 sequence (P09252 whole entry): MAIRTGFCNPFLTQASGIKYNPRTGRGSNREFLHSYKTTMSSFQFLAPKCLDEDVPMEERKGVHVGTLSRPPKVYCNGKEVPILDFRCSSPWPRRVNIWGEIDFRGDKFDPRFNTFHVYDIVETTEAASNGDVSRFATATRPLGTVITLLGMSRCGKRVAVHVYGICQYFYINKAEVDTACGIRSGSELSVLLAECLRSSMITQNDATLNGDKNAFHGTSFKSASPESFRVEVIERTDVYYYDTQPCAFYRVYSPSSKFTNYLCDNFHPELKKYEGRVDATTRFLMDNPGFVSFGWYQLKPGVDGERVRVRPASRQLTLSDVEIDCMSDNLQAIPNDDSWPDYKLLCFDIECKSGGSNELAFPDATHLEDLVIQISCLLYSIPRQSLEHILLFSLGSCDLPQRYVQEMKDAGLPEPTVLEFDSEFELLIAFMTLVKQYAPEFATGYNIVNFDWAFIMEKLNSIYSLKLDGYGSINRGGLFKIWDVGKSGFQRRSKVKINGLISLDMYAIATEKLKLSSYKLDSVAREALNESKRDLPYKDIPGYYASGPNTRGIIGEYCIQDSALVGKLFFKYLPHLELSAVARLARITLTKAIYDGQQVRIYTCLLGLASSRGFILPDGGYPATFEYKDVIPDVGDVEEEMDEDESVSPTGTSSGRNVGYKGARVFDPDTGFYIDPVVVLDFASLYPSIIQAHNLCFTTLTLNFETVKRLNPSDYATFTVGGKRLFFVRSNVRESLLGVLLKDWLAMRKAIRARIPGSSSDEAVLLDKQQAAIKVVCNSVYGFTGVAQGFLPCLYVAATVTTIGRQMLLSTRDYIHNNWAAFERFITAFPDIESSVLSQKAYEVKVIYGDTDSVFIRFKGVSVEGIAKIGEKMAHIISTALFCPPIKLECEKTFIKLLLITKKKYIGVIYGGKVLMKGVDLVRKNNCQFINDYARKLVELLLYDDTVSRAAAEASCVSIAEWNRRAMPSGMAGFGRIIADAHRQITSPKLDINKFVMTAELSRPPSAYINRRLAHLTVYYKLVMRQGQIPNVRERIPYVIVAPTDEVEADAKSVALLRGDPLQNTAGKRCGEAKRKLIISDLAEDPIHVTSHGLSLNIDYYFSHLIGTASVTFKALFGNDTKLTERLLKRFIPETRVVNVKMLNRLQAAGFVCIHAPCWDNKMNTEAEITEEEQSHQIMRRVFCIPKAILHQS

## Cc1c(CN2CCOCC2)cc2c(C(=O)NCc3ccc(Cl)cc3)nn(C)c2c1C [Compound 22]
[1]; [6]
  EC50: 4300 nM
[2]; read-out: CMV^a (IC50)
  IC50: 580 nM

## Cn1nc(C(=O)NCc2ccc(Cl)cc2)c2c(F)c(CN3CCOCC3)ccc21 [Compound 21]
[3]; [7]
  EC50: 2200 nM
[4]; read-out: VZV^a (IC50)
  IC50: 180 nM
[5]; [8]
  EC50: 3600 nM
[1]; [6]
  EC50: 7200 nM
[2]; read-out: CMV^a (IC50)
  IC50: 480 nM

## Cc1nnn(C)c1COc1ccc2c(C(=O)NCc3ccc(Cl)cc3)nn(C[C@@H](C)O)c2c1F [Compound 12]
[4]; VZV^a (IC50)
  IC50: 1.6 nM
[1]; [9]
  EC50: 300 nM
[2]; CMV^a (IC50)
  IC50: 7.1 nM

## Cn1nc(C(=O)NCc2ccc(Br)cc2)c2cc(CN3CCOCC3)ccc21 [Compound 24]
[4]; read-out: VZV^a (IC50)
  IC50: 220 nM
[1]; [6]
  EC50: > 9900 nM
[2]; read-out: CMV^a (IC50)
  IC50: 920 nM

## Cn1nc(C(=O)NCc2ccc(Cl)cc2)c2cc(CN3CCOCC3)ncc21 [Compound 29]
[4]; read-out: VZV^a (IC50)
  IC50: 1600 nM
[2]; read-out: CMV^a (IC50)
  IC50: 2400 nM

## Cc1c(N2CCn3nncc3C2)ccc2c(C(=O)NCc3ccc(C#N)cc3)nn(C[C@H](C)NC(=O)C(C)C)c12 [Compound 32]
[3]; [10]
  EC50: 14000 nM
[4]; VZV^a (IC50)
  IC50: 1.8 nM
[5]; [11]
  EC50: 13000 nM
[1]; [9]
  EC50: 60 nM
[2]; CMV^a (IC50)
  IC50: 4.2 nM

## Cc1c(N2CCn3nncc3C2)ccc2c(C(=O)NCc3ccc(Cl)cc3)nn(C3CCNC3)c12 (centres unmarked) [Compound 6]
[3]; [12]
  EC50: > 40000 nM
[4]; VZV^a (IC50)
  IC50: 19 nM
[5]; read-out: HSV2 Cell^b CPE(EC50), unstarred values: CPE assay of Example 25, Vero cells, 5 days
  EC50: 3700 nM
[1]; read-out: CMV Cell^b (EC50), footnote b: assay described in Example 25
  EC50: 110 nM
[2]; CMV^a (IC50)
  IC50: 45 nM

## N#Cc1c(N2CCn3nncc3C2)ccc2c(C(=O)NCc3ccc(Cl)cc3)n[nH]c12 [Compound 11]
[3]; [7]
  EC50: 480 nM
[4]; read-out: VZV^a (IC50)
  IC50: 3.7 nM
[5]; [8]
  EC50: 700 nM
[1]; [6]
  EC50: 93 nM
[2]; read-out: CMV^a (IC50)
  IC50: 23 nM

## Cn1nc(C(=O)NCc2ccc([N+](=O)[O-])cc2)c2cc(CN3CCOCC3)ccc21 [Compound 23]
[4]; read-out: VZV^a (IC50)
  IC50: 180 nM
[1]; [6]
  EC50: 12000 nM
[2]; read-out: CMV^a (IC50)
  IC50: 990 nM

## Cc1c(CN2CCCS(=O)(=O)CC2)ccc2c1c(C(=O)NCc1ccc(Cl)cc1)nn2C [Compound 18]
[3]; [7]
  EC50: 6300 nM
[4]; read-out: VZV^a (IC50)
  IC50: 160 nM
[5]; [8]
  EC50: 6100 nM
[1]; [6]
  EC50: 2900 nM
[2]; read-out: CMV^a (IC50)
  IC50: 120 nM

## Cc1c(CN2CCOCC2)cc(C)c2c1c(C(=O)NCc1ccc(Cl)cc1)nn2C [Compound 19]
[3]; [7]
  EC50: 1800 nM
[4]; read-out: VZV^a (IC50)
  IC50: 66 nM
[5]; [8]
  EC50: 5300 nM
[1]; [6]
  EC50: 6100 nM
[2]; read-out: CMV^a (IC50)
  IC50: 280 nM

## Cc1c(N2CCn3nncc3C2)ccc2c(C(=O)NCc3ccc(Cl)cc3)nn(CCOCCO)c12 [Compound 5]
[3]; [10]
  EC50: > 40000 nM
[4]; VZV^a (IC50)
  IC50: 12 nM
[5]; [11]
  EC50: 610 nM
[1]; [9]
  EC50: 97 nM
[2]; CMV^a (IC50)
  IC50: 33 nM

## Cc1c(N2CCn3nncc3C2)ccc2c(C(=O)NCc3ccc(Cl)cc3)nn(C3CCNC3)c12 (centres unmarked) [Compound 4]
[3]; [12]
  EC50: 3100 nM
[4]; VZV^a (IC50)
  IC50: 16 nM
[5]; [11]
  EC50: 2100 nM
[1]; [9]
  EC50: 85 nM
[2]; CMV^a (IC50)
  IC50: 37 nM

## Cc1cc(CN2CCCS(=O)(=O)CC2)cc2c(C(=O)NCc3ccc(C#N)cc3)nn(CCC#N)c12 [Compound 8]
[3]; [10]
  EC50: 6400 nM
[4]; VZV^a (IC50)
  IC50: 62 nM
[5]; [11]
  EC50: 22000 nM
[1]; [9]
  EC50: 150 nM
[2]; CMV^a (IC50)
  IC50: 103 nM

## Cc1c(NCc2cnnn2C)ccc2c(C(=O)NCc3ccc(Cl)cc3)n[nH]c12 [Compound 13]
[4]; read-out: VZV^a (IC50)
  IC50: 5 nM
[1]; [6]
  EC50: 320 nM
[2]; read-out: CMV^a (IC50)
  IC50: 17 nM

## Cn1nc(C(=O)NCc2ccc(Cl)cc2)c2ccc(N3CCn4nncc4C3)nc21 [Compound 30]
[4]; read-out: VZV^a (IC50)
  IC50: 3000 nM
[2]; read-out: CMV^a (IC50)
  IC50: 1600 nM

## Cc1c(N2CCn3nncc3C2)ccc2c(C(=O)NCc3ccc(C#N)cc3)nn(CCC#N)c12 [Compound 1]
[3]; [10]
  EC50: 1600 nM
[4]; VZV^a (IC50)
  IC50: 13 nM
[5]; [11]
  EC50: 2500 nM
[1]; [9]
  EC50: 120 nM
[2]; CMV^a (IC50)
  IC50: 53 nM

## Cn1nc(C(=O)NCc2ccc(Cl)cc2)c2cnc(N3CCn4nncc4C3)cc21 [Compound 28]
[4]; read-out: VZV^a (IC50)
  IC50: 250 nM
[1]; [6]
  EC50: 7500 nM
[2]; read-out: CMV^a (IC50)
  IC50: 810 nM

## Cn1nc(C(=O)NCc2ccc(Cl)cc2)c2c3c(ccc21)C(N1CCOCC1)CC3 (single isomer, unassigned) [Compound 16]
[3]; [7]
  EC50: 1500 nM
[4]; read-out: VZV^a (IC50)
  IC50: 38 nM
[5]; [8]
  EC50: 1600 nM
[1]; [6]
  EC50: 970 nM
[2]; read-out: CMV^a (IC50)
  IC50: 260 nM

## Cn1cc(C(=O)NCc2ccc(Cl)cc2)c2ccc(N3CCn4nncc4C3)cc21 [Compound 31]
[4]; read-out: VZV^a (IC50)
  IC50: 120 nM
[2]; read-out: CMV^a (IC50)
  IC50: 190 nM

## Cn1nc(C(=O)NCc2ccc(F)cc2)c2cc(CN3CCOCC3)ccc21 [Compound 26]
[4]; read-out: VZV^a (IC50)
  IC50: 740 nM
[2]; read-out: CMV^a (IC50)
  IC50: 3300 nM
